Experimental data published in patent US8771744B2, “Barrier composition” (Prosonix Limited, priority 2009, dated 2014).
Structures can show the parent of a compound that is named as a salt.

Assay: Particle size distribution (Sympatec) of spray dried, ultrasound treated particles
Format: physicochemical
Text: Preferably the active particles of the invention have a volume diameter of less than 10 μm, more preferably at least 90 wt % of the active ingredient particles in a given composition have a diameter equal to or lower than 10 μm as determined by measuring the characteristic equivalent sphere diameter, known as volume diameter, by laser diffraction as described above, preferably using a Malvern or equivalent apparatus. The parameters taken into consideration are the volume diameters (VD) in microns of 10%, 50% and 90% of the particles expressed as d(10), d(50) and d(90), respectively, which correspond to the mass diameter assuming a size independent density for the particles.
Fenoterol hydrobromide (5 g) was dissolved in 100 mL of methanol. The samples of Fenoterol hydrobromide powder collected in the ultrasonic chamber were produced using a Büchi-290 laboratory-scale spray dryer (Büchi, Switzerland). The solution was atomized using nitrogen at 7 bar flowing at approximately at 10 Lpm (Liter/minute). The aspirator was set at 100% and flow rate of solution was set to […]. The gas temperature was set to 120° C. Fenoterol hydrobromide particles were collected from both the cyclone separator and the PTFE bag filter assembly. The resultant amorphous particles contained 3000 ppm (0.3% w/w) residual methanol. The particles were placed into an ultrasonic chamber fitted with a 20 kHz ultrasonic transducer on its base (Prosonix SL 10) as shown in FIG. 8. The chamber was heated to 40° C. using a thermoregulated water jacket. Ultrasound at 20 W power was applied between 30 minutes and 2 hour. The resulting particles were characterized by optical microscopy and DSC (Differential Scanning Calorimetry). The size of the particles were typically in the range of 1-7 μm. In this specific example d(10)=0.91 μm; d(50)=1.76 μm; d(90)=3.38 μm (see FIG. 4).

[1] = spray dried particles after dry powder ultrasound treatment, FIG. 4

In the case of `CC(Cc1ccc(O)cc1)NCC(O)c1cc(O)cc(O)c1` (stereo not shown) [Fenoterol hydrobromide], the “size of the particles” value (spray dried particles after dry powder ultrasound treatment (20 kHz, 20 W, 40° C., 30 minutes to 2 hour), typical range) is reported as 1-7 μm, the “d(10)” value [1] is reported as 0.91 μm and the “d(50)” value [1] is reported as 1.76 μm. For the same molecule, the “d(90)” value [1] was 3.38 μm.
